Measured values as given in PubChem BioAssay (NCI).
Values joined by “and” are separate entries in the source; they are usually repeats but may differ in a detail not shown here. Identical values can stand only once.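 Grown in 96-well plates, cells were treated for 48 hours with each compound at five concentrations. Insufficient inhibition: endpoint recorded as highest concentration tested. GI50: concentration for 50% inhibition of growth. TGI: total growth inhibition.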

What was measured:
Experiment in all cases: NCI-60 cell line screen, 48 h
[1] = tested on: U251 CNS
[2] = tested on: UO-31 renal
[3] = tested on: HL-60(TB) leukemia
[4] = tested on: OVCAR-4 ovarian
[5] = tested on: OVCAR-5 ovarian
[6] = tested on: SK-MEL-2 melanoma
[7] = tested on: DLD-1 colon
[8] = tested on: SNB-78 CNS
[9] = tested on: HCT-15 colon
[10] = tested on: BT-549 breast

Row | Compound | TGI [1] | TGI [2] | TGI [3] | TGI [4] | TGI [5] | TGI [6] | TGI [7] [µM] | TGI [8] [µM] | TGI [9] | TGI [10] | GI50 [1] [µM] | GI50 [2] | GI50 [3] | GI50 [4] [µM] | GI50 [6] | GI50 [9] | GI50 [10] [µM] | GI50 [5] | GI50 [7] [µM] | GI50 [8] [µM]
1 | O=C(Nc1ccccc1Br)c1cccc([N+](=O)[O-])c1O | 14.9 µM | 5.73 µM | 12.9 µM | > 28.9 µM | > 94 µM | 52.7 µM | > 100 | > 84.8 | 25.4 µM | – | – | – | – | – | – | – | – | – | – | –
2 | O=C(O)C1c2ccccc2C(C(=O)O)c2ccccc21 (configuration not stated) | > 100 µM | > 100 µM | > 100 µM | > 100 µM | > 100 µM | > 100 µM | > 100 | > 100 | > 100 µM | – | – | – | – | – | – | – | – | – | – | –
3 | CCN(CC)C(=S)SC1CCOP(=O)(N(CCCl)CCCl)N1C (configuration not stated) | > 52.5 µM | > 96.4 µM | 32.2 µM | 46.4 µM | > 100 µM | 45.3 µM | 21.3 | > 100 | 91.5 µM | > 100 µM | – | – | – | – | – | – | – | – | – | –
4 | O=c1c2ccccc2c(=O)c2c1cc(Cl)c1[nH]c3c([nH]c12)c(Cl)cc1c(=O)c2ccccc2c(=O)c13 | > 100 µM | > 100 µM | > 100 µM | > 100 µM | > 100 µM | > 100 µM | > 100 | > 100 | > 100 µM | – | – | – | – | – | – | – | – | – | – | –
5 | COc1cc([C@@H]2c3cc4c(cc3[C@H](O)[C@H]3COC(=O)[C@H]23)OCO4)cc(OC)c1OC | > 100 µM and 50 µM and > 7.6 µM | > 100 µM and 50 µM and 42.7 µM | < 0.005 µM | – | > 100 µM and 46.3 µM | – | > 100 | > 100 | > 100 µM and 50 µM | – | < 0.005 | < 0.005 µM | < 0.01 µM | < 0.005 | < 0.005 µM | < 0.005 µM | < 0.01 | – | – | –
6 | N#CCC(=O)N/N=C1\C(=O)N(c2ccc(Cl)cc2)C(=O)C(=O)C1c1nc2ccccc2o1 (configuration not stated) | > 100 µM | > 100 µM | > 100 µM | > 100 µM | – | > 100 µM | > 100 | > 100 | > 100 µM | – | – | – | – | – | – | – | – | – | – | –
7 | C/C(=N/NC(=O)C(N)=O)C(CC(C(=O)Nc1ccccc1C)/C(C)=N\NC(=O)C(N)=O)C(=O)Nc1ccccc1C (configuration not stated) | > 100 µM | > 100 µM | > 100 µM | > 100 µM | > 100 µM | > 100 µM | > 100 | > 100 | – | – | – | – | – | – | – | – | – | – | – | –
8 | O=C1/C(=C/c2ccccc2)CCC/C1=C\c1ccccc1 | 11.5 µM and 14.8 µM and 12.9 µM | 11 µM and 32.3 µM and 28 µM | 36.5 µM and > 53 µM and 90 µM | 11.8 µM and 32.4 µM | 12 µM and 31.7 µM and 43.3 µM | 13.9 µM and 35.5 µM and 49.9 µM | 8.83 | > 87.9 | 11.9 µM and 31.7 µM and 43.8 µM | 10.9 µM and 24 µM | 3.33 | 6.04 µM and 12.5 µM | 10.4 µM and 26.1 µM | 6.18 | 6.19 µM and 22.7 µM | 5.91 µM and 6.43 µM | – | 6.75 µM and 22 µM | – | –
9 | COC(=O)C1CCC(Nc2cccc(C(F)(F)F)c2)=N1 (configuration not stated) | > 100 µM | > 100 µM | > 100 µM | > 100 µM | > 100 µM | > 100 µM | > 100 | > 100 | > 100 µM | – | – | – | – | – | – | – | – | – | – | –
10 | Cc1cc(NS(=O)(=O)c2ccc(NC(=O)c3cccc4c(Nc5ccc(S(=O)(=O)Nc6cc(C)on6)cc5)c5ccccc5nc34)cc2)no1 | 86.9 µM | > 100 µM | 67 µM | > 100 µM | > 100 µM | 78.4 µM | > 100 | > 100 | > 100 µM | – | – | – | – | – | – | – | – | – | – | –
11 | CCC[CH2][Sn]([CH2]CCC)([O]C(=O)c1nccnc1N)[O]C(=O)c1nccnc1N | 1.65 µM | 2.77 µM | 1.42 µM | 3.49 µM | 3.1 µM | 1.62 µM | 2.12 | 1.57 | 2.37 µM | – | 0.478 | 1.45 µM | 0.262 µM | 2.02 | 0.424 µM | 1.15 µM | – | 1.72 µM | 0.876 | 0.388
12 | CC1=C(c2cc(C(=O)Nc3ccc(Cl)c(Cl)c3)nc(N)n2)Sc2ccccc2N1 | > 100 µM | > 100 µM | > 100 µM | > 100 µM | > 100 µM | > 100 µM | > 100 | > 100 | > 100 µM | – | – | – | – | – | – | – | – | – | – | –
13 | CCOc1ccc(N=Nc2ccc3oc(=O)c(C(=O)Nc4ccc(OC)cc4)cc3c2)cc1 | 61.1 µM | 78 µM | 20.4 µM | 52.9 µM | > 100 µM | 54.4 µM | 61.4 | 82.8 | > 100 µM | – | – | – | – | – | – | – | – | – | – | –
14 | CCOC(=O)C(=O)N=Nc1nc2c(O)c3ccccc3c(O)c2s1 | 14.1 µM | 6.12 µM | > 100 µM | 3.64 µM | 16.1 µM | 8.98 µM | 10.2 | 8.48 | 6.49 µM | 22.9 µM | – | – | – | – | – | – | – | – | – | –
15 | CC[O-].Cc1ccc2cccc([O-])c2n1.Cc1ccc2cccc([O-])c2n1.Cc1ccc2cccc([O-])c2n1.[Ti+4] | 50.4 µM | > 100 µM | 16 µM | > 68.3 µM | > 100 µM | > 57.5 µM | > 81 | > 100 | > 100 µM | – | 18.3 | > 100 µM | 3.3 µM | 25 | 22.9 µM | 42.4 µM | – | > 65 µM | 28.9 | 59.7
16 | CC(C)(C)[Si](C)(C)O/N=C\c1ccc(O[Si](C)(C)C(C)(C)C)cc1 | 61.7 µM | > 100 µM | > 100 µM | > 100 µM | > 100 µM | > 100 µM | > 100 | > 100 | > 100 µM | – | – | – | – | – | – | – | – | – | – | –
17 | CN(c1ccccc1)C1C(=O)N(c2ccccc2)C1/C=C/c1ccccc1 (configuration not stated) | > 100 µM | > 100 µM | > 100 µM | – | > 100 µM | > 100 µM | > 100 | > 100 | – | – | – | – | – | – | – | – | – | – | – | –
18 | C=C1Oc2nc3ccccc3c(=O)n2C1(C)C | > 100 µM | > 100 µM | > 100 µM | > 100 µM | > 100 µM | > 100 µM | > 100 | > 100 | > 100 µM | – | – | – | – | – | – | – | – | – | – | –
19 | Cc1cc(C(=O)N2CCN(Cc3ccccc3)CC2)c(C)o1 | > 100 µM | > 100 µM | > 100 µM | > 100 µM | > 100 µM | – | > 100 | > 100 | > 100 µM | – | – | – | – | – | – | – | – | – | – | –
20 | C=C(CS(=O)(=O)c1ccccc1)[P+](c1ccccc1)(c1ccccc1)c1ccccc1 | – | 94.3 µM | 32.6 µM | > 100 µM | > 100 µM | > 100 µM | > 100 | > 100 | > 100 µM | – | – | – | – | – | – | – | – | – | – | –
